pIC50: −log10 of the molar value.
Target: T1, hROMK (hKir1.1) (Homo sapiens, UniProt P48048)
T1 construct: expressed in transfected cells
T1 sequence (P48048 1-391): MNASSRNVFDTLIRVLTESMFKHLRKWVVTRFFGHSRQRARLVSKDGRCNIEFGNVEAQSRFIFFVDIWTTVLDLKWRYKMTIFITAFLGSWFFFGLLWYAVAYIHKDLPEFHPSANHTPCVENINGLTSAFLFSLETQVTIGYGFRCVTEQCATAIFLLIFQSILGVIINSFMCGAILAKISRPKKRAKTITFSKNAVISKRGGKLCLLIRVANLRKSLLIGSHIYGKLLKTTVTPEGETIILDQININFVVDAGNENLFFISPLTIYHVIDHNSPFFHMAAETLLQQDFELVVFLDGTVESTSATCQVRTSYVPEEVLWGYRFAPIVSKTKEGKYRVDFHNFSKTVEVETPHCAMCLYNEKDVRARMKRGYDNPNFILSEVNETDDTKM
Test: Thallium Flux Assay (ROMK channel functional thallium flux, FLIPR-Tetra)
Type: cell-based
Conditions: HEK293 cells stably expressing hROMK (hKir1.1); 30 min incubation with compound; HCl salt run where final product was an HCl salt
Protocol: The following Thallium Flux Assay was performed on each of the final product compounds in the Examples. When the final product of an Example was an HCl salt, the salt was run in the Assay.
Cell Culture Conditions—HEK293 cells stably expressing hROMK (hKir1.1) were grown at 37° C. in a 10% CO2 humidified incubator in complete growth media: Dulbecco's Modified Eagle Medium supplemented with non-essential amino acids, Penicillin/Streptomycin/Glutamine, G418 and FBS. At >80% confluency, aspirate the media from the flask and rinse with 10 mL Calcium/Magnesium-free PBS. Add 5 mL of 1× trypsin (prepared in Ca/Mg Free PBS) to T-225 flask and return flask to 37° C./CO2 incubator for 2-3 minutes. To dislodge the cell, gently bang the side of the flask with your hand. Triturate the cells completely and then transfer the cells to 25 mL complete media. Centrifuge at 1,500 rpm for 6 min followed by resuspension in complete growth media and determine cell concentration. For typical re-seeding, 4E6 cells/T-225 flask will attain >80% confluency in 4 days. Under ideal growth conditions and appropriate tissue culture practices, this cell line is stable for 40-45 passages.
FluxOR Kit Components (Invitrogen F10017)
• FluxOR™ Reagent (Component A) • FluxOR™ Assay Buffer (Component B)—10× Concentrate • PowerLoad™ Concentrate (Component C)—100× Concentrate • Probenecid (Component D)—Lyophilized sample is kept at −20° C. Water soluble, 100× after solubilization in 1 mL water. Store at 4° C. • FluxOR™ Chloride-free Buffer (Component E)—5× Concentrate • Potassium sulfate (K2SO4) Concentrate (Component F)—125 mM in water. Store at 4° C. • Thallium sulfate (T12SO4) Concentrate (Component G)—50 mM in water. Store at 4° C. • DMSO (dimethyl sulfoxide, Component H)—1 mL (100%) Reagent Preparation: FluxOR Working Solutions • 1000× FluxOR™ Reagent: Reconstitute a vial of component A in 100 μl DMSO; Mix well; Store 10 μl aliquots at −20° C. • 1× FluxOR™ Assay Buffer: Dilute Component B 10-fold with water; Adjust pH to 7.4 with Hepes/NaOH; Filter and store at 4° C. • Probenecid/Assay Buffer: 100 mL of 1× FluxOR™ Assay Buffer; 1 mL of reconstituted component D; Store at 4° C. • Loading Buffer (per microplate): 10 μl 1000× FluxOR™ Reagent; 100 μl component C; 10 mL Probenecid/Assay Buffer • Compound Buffer (per microplate): 20 mL Probenecid/Assay Buffer; 0.3 mM ouabain (10 mM ouabain in water can be stored in amber bottle/aluminum foil at room temperature); Test compound • 1× FluxOR™ Chloride-Free Buffer: Prepare 1× working solution in water. Can be stored at room temperature • Stimulant Buffer (prepared at 5× final concentration in 1× FluxOR™ Chloride-Free Buffer): 7.5 mM Thallium sulfate and 0.75 mM Potassium sulfate (to give a final assay concentration of 3 mM Thallium/0.3 mM Potassium). Store at 4° C. when not in use.
Assay protocol—The ROMK channel functional thallium flux assay is performed in 384 wells, using the FLIPR-Tetra instrument. HEK-hKir1.1 cells are seeded in Poly-D-Lysine microplates and kept in a 37° C.-10% CO2 incubator overnight. On the day of the experiment, the growth media is replaced with the FluxOR™ reagent loading buffer and incubated, protected from light, at ambient temperature (23-25° C.) for 90 min. The loading buffer is replaced with assay buffer±test compound followed by 30 min incubation at ambient temperature, where the Thallium/Potassium stimulant is added to the microplate.
• 1. Seed HEK-hKir1.1 cells (50 μl at 20,000 cells/well) in 384-well PDL coated Microplates • 2. Allow cells to adhere overnight in humidified 37° C./10% CO2 incubator • 3. Completely remove cell growth media from microplate and replace with 25 μl loading buffer • 4. Incubate Microplate at room temperature, protected from light, for 90 min • 5. Remove loading buffer and replace with 25 μl 1× Assay Buffer±test compound. • 6. Incubate microplate at room temperature, protected from light, for 30 min • 7. […]

Structure (SMILES) | pIC50
Cc1c(C(O)CN2CCC(O)(C(=O)Nc3ccc(C#N)cn3)CC2)ccc2c1COC2=O (stereo in doubt) [Example 37, (R)-N-(5-cyanopyridin-2-yl)-4-hydroxy-1-(2-hydroxy-2-(4-methyl-1-oxo-1,3-dihydroisobenzofuran-5-yl)ethyl)piperidine-4-carboxamide] | 6.33
COc1nsc(NC(=O)C2CCN(C[C@H](O)c3ccc4c(c3C)COC4=O)CC2)n1 [Example 1, (R)-1-(2-Hydroxy-2-(4-methyl-1-oxo-1,3-dihydroisobenzofuran-5-yl)ethyl)-N-(3-methoxy-1,2,4-thiadiazol-5-yl)piperidine-4-carboxamide] | 6.77
Cc1ccc(C#N)cc1NC(=O)C1CCN(CCc2ccc3c(c2C)COC3=O)CC1 [Example 2, N-(5-cyano-2-methylphenyl)-1-(2-(4-methyl-1-oxo-1,3-dihydroisobenzofuran-5-yl)ethyl)piperidine-4-carboxamide] | 6.34
Cc1c(CCN2CCC(C(=O)Nc3ccc(C#N)cc3)CC2)ccc2c1COC2=O [Example 3, N-(4-cyanophenyl)-1-(2-(4-methyl-1-oxo-1,3-dihydroisobenzofuran-5-yl)ethyl)piperidine-4-carboxamide] | 6.85
Cc1c(CCN2CCC(C(=O)Nc3ccc(C#N)nc3)CC2)ccc2c1COC2=O [Example 4, N-(6-cyanopyridin-3-yl)-1-(2-(4-methyl-1-oxo-1,3-dihydroisobenzofuran-5-yl)ethyl)piperidine-4-carboxamide] | 6.68
Cc1c(CCN2CCC(C(=O)Nc3ccc(C#N)c(F)c3)CC2)ccc2c1COC2=O [Example 5, N-(4-cyano-3-fluorophenyl)-1-(2-(4-methyl-1-oxo-1,3-dihydroisobenzofuran-5-yl)ethyl)piperidine-4-carboxamide] | 7.52
Cc1c(CCN2CCC(C(=O)Nc3ccc(C#N)c4ccccc34)CC2)ccc2c1COC2=O [Example 6, N-(4-cyanonaphthalen-1-yl)-1-(2-(4-methyl-1-oxo-1,3-dihydroisobenzofuran-5-yl)ethyl)piperidine-4-carboxamide] | 7.15
Cc1nc(NC(=O)C2CCN(CCc3ccc4c(c3C)COC4=O)CC2)ccc1C#N [Example 7, N-(5-cyano-6-methylpyridin-2-yl)-1-(2-(4-methyl-1-oxo-1,3-dihydroisobenzofuran-5-yl)ethyl)piperidine-4-carboxamide] | 7.00
Cc1cc(C#N)ccc1NC(=O)C1CCN(CCc2ccc3c(c2C)COC3=O)CC1 [Example 8, N-(4-cyano-2-methylphenyl)-1-(2-(4-methyl-1-oxo-1,3-dihydroisobenzofuran-5-yl)ethyl)piperidine-4-carboxamide] | 7.00
Cc1c(CCN2CCC(C(=O)Nc3cc(C#N)ccc3F)CC2)ccc2c1COC2=O [Example 9, N-(5-cyano-2-fluorophenyl)-1-(2-(4-methyl-1-oxo-1,3-dihydroisobenzofuran-5-yl)ethyl)piperidine-4-carboxamide] | 6.60
Cc1c(CCN2CCC(C(=O)Nc3ccc4c(c3)COC4=O)CC2)ccc2c1COC2=O [Example 10, 1-(2-(4-methyl-1-oxo-1,3-dihydroisobenzofuran-5-yl)ethyl)-N-(1-oxo-1,3-dihydroisobenzofuran-5-yl)piperidine-4-carboxamide] | 8.00
Cc1c(CCN2CCC(C(=O)Nc3ccc4nonc4c3)CC2)ccc2c1COC2=O [Example 11, N-(benzo[c][1,2,5]oxadiazol-5-yl)-1-(2-(4-methyl-1-oxo-1,3-dihydroisobenzofuran-5-yl)ethyl)piperidine-4-carboxamide] | 6.68
CCOc1cc(NC(=O)C2CCN(CCc3ccc4c(c3)COC4=O)CC2)ccc1C#N [Example 12, N-(4-cyano-3-ethoxyphenyl)-1-[2-(1-oxo-1,3-dihydro-2-benzofuran-5-yl)ethyl]piperidine-4-carboxamide] | 7.52
COc1cc(NC(=O)C2CCN(CCc3ccc4c(c3)COC4=O)CC2)ccc1C#N [Example 13, N-(4-cyano-3-methoxyphenyl)-1-(2-(1-oxo-1,3-dihydroisobenzofuran-5-yl)ethyl)piperidine-4-carboxamide] | 7.52
N#Cc1cc(F)c(NC(=O)C2CCN(CCc3ccc4c(c3)COC4=O)CC2)cc1F [Example 14, N-(4-cyano-2,5-difluorophenyl)-1-(2-(1-oxo-1,3-dihydroisobenzofuran-5-yl)ethyl)piperidine-4-carboxamide] | 6.85
N#Cc1ccc(NC(=O)C2CCN(CCc3ccc4c(c3)COC4=O)CC2)c(OC(F)(F)F)c1 [Example 15, N-(4-cyano-2-(trifluoromethoxy)phenyl)-1-(2-(1-oxo-1,3-dihydroisobenzofuran-5-yl)ethyl)piperidine-4-carboxamide] | 6.74
N#Cc1cc(NC(=O)C2CCN(CCc3ccc4c(c3)COC4=O)CC2)ccc1Cl [Example 16, N-(4-chloro-3-cyanophenyl)-1-(2-(1-oxo-1,3-dihydroisobenzofuran-5-yl)ethyl)piperidine-4-carboxamide] | 6.59
N#Cc1cc(NC(=O)C2CCN(CCc3ccc4c(c3)COC4=O)CC2)ccc1F [Example 17, N-(3-cyano-4-fluorophenyl)-1-(2-(1-oxo-1,3-dihydroisobenzofuran-5-yl)ethyl)piperidine-4-carboxamide] | 6.39
O=C1OCc2cc(CCN3CCC(C(=O)Nc4ccc5cn[nH]c5c4)CC3)ccc21 [Example 18, N-(1H-indazol-6-yl)-1-(2-(1-oxo-1,3-dihydroisobenzofuran-5-yl)ethyl)piperidine-4-carboxamide] | 6.29
O=C1OCc2cc(CCN3CCC(C(=O)Nc4ccc5[nH]nnc5c4)CC3)ccc21 [Example 19, N-(1H-benzo[d][1,2,3]triazol-5-yl)-1-(2-(1-oxo-1,3-dihydroisobenzofuran-5-yl)ethyl)piperidine-4-carboxamide] | 6.36
O=C1OCc2cc(CCN3CCC(C(=O)Nc4ccc5sncc5c4)CC3)ccc21 [Example 20, N-(benzo[d]isothiazol-5-yl)-1-(2-(1-oxo-1,3-dihydroisobenzofuran-5-yl)ethyl)piperidine-4-carboxamide] | 6.33
N#Cc1cc(NC(=O)C2CCN(CCc3ccc4c(c3)COC4=O)CC2)n(-c2ccc(F)cc2)c1 [Example 21, N-(4-cyano-1-(4-fluorophenyl)-1H-pyrrol-2-yl)-1-(2-(1-oxo-1,3-dihydroisobenzofuran-5-yl)ethyl)piperidine-4-carboxamide] | 6.39
Cc1c([C@@H](O)CN2CCC(C(=O)Nc3ccns3)CC2)ccc2c1COC2=O [Example 22, 1-[(2R)-2-hydroxy-2-(4-methyl-1-oxo-1,3-dihydro-2-benzofuran-5-yl)ethyl]-N-(isothiazol-5-yl)piperidine-4-carboxamide] | 7.40

Source: US9951052B2, “Inhibitors of the renal outer medullary potassium channel” (Merck Sharp & Dohme Corp., priority 2013, dated 2018)
